# Measurements as given in paper PMC10014103, “The immunometabolite itaconate stimulates OXGR1 to promote mucociliary clearance during the pulmonary innate immune response” (The Journal of Clinical Investigation, 2023).
# Key:
# [1] = molecular target: human OXGR1 (Homo sapiens, UniProt Q96P68); assay: Fluo-4 assay in HEK293 cells expressing human OXGR1; assay type: cell-based; conditions: Fluo-4 assay, hOXGR1 in HEK293 cells; read-out: EC50
# Method: For the Fluo-4AM assay, OXGR1-expressing cells were loaded with 2 μM Fluo-4AM for 30 minutes at 37°C. Excess Fluo-4AM was then washed off with HBSS buffer. After incubation at 37°C for another 10 minutes, cells were transferred onto a 96-well plate.
# [2] = molecular target: T1, human GPCRs (Homo sapiens, UniProt Q96P68); assay: Screen of 301 human GPCRs in transfected HEK293 cells (aequorin, Gα16 coexpression); assay type: cell-based; conditions: 301 GPCRs, ligand final 0.625 mM; result for OXGR1
# T1 construct: expressed in transfected cells; host or cells: HEK293
# From the text: In our search for the function and mechanism of secreted ITA, we noted the signaling of the GPCR proteins SUCNR1/GPR91 and OXGR1/GPR99, which sense the TCA metabolites succinate and α-KG, which are structurally similar to ITA ([27]). To test the hypothesis that ITA may similarly signal through a GPCR, we performed a screening of human GPCRs in transfected HEK293 cells and measured GPCR-dependent calcium mobilization (Figure 1E and Supplemental Figure 1; supplemental material available online with this article; https://doi.org/10.1172/JCI160463DS1). In order to allow more GPCRs to couple with the calcium pathway, we optimized the screening system by inducing coexpression of the promiscuous Gq family α subunit Gα16 ([34]). We examined 301 GPCRs that cover more than 70% of the nonolfactory GPCRs encoded by the human genome ([35]).
# For the aequorin assay, HEK293 cells were transfected with aequorin plasmids (Addgene no. 78734), Gα16 plasmid, and GPCR plasmids. Thirty-six hours after transfection, cells were maintained in serum-free medium for 12 hours and then loaded with 5 μM coelenterazine for 3 hours. […] Ligands (100 μL, diluted to 1.25 mM in HBSS buffer, with a final concentration of 0.625 mM) were injected into plates, and luminance was recorded for 30 seconds using the BioTek Synergy H1 plate reader.
# [3] = molecular target: T2, FLAG-tagged OXGR1 (Homo sapiens, UniProt Q96P68); assay: Endocytosis assay of FLAG-tagged OXGR1 in HEK293 cells; assay type: cell-based; conditions: WT OXGR1, within 10 minutes of ligand treatment
# T2 construct: expressed in transfected cells
# Method: (§1) For endocytosis assays, HEK293 cells stably expressing FLAG-OXGR1 were chilled on ice in DMEM medium supplemented with 30 mM HEPES for 10 minutes. […] Unbound antibody was then washed off with prechilled HBSS buffer. […] After ligand stimulation, cells were fixed and permeabilized. Subcellular localization of FLAG-tagged OXGR1 was detected using FITC-donkey anti-rabbit antibody (Invitrogen, Thermo Fisher Scientific), and nuclei were stained with DAPI (MilliporeSigma). Immunofluorescence images were captured with a Leica SP8 laser-scanning confocal microscope.
# [4] = system: FLAG-tagged OXGR1; assay: as above; assay type: cell-based, human; conditions: after ITA treatment
# Method: as §1
# [5] = system: OXGR1; assay: ERK phosphorylation by Western blotting in OXGR1-expressing HEK293 cells; assay type: cell-based, human; conditions: 5 μM to 1 mM for 15 minutes
# Method: HEK293 cells were transiently transfected with plasmids expressing empty vector or FLAG-tagged OXGR1 using PolyJet reagent. The medium was switched to serum-free DMEM 36 hours after transfection. After serum starvation for another 12 hours, cells were stimulated with the indicated ligand and lysed in Laemmli buffer. Protein lysate was separated on standard SDS-PAGE, transferred onto a PVDF membrane, and then subjected to immunoblotting with the following antibodies: anti–p-ERK (catalog 4370, Cell Signaling Technology); anti-Flag (catalog 14793, Cell Signaling Technology); anti-IRG1/anti-ACOD1 (catalog 19857, Cell Signaling Technology); anti-Myc (catalog 2278, Cell Signaling Technology); anti-ERK (catalog 67170-1-Ig, Proteintech); and anti-actin (catalog A00702, GenScript).
# [6] = system: OXGR1; assay: Cellular thermal shift assay of OXGR1; assay type: binding, human; conditions: 1 mM ITA, 37 to 62 °C
# Method: Supplementary Figure 4. ITA increases the thermostability of OXGR1
# Cells expressing Myc-tagged BirA along with AviTag-tagged wildtype (A) or R110A mutant (B) OXGR1 were treated with 1 μM biotin for 16 hours in serum-free medium to biotinylate OXGR1 in native conformation. Cells were treated with or without 1mM ITA, lysed, and incubated under different temperatures (from 37 to 62℃) for 3 minutes.
# Denatured protein was removed by centrifuge. Biotinylated OXGR1 was determined by Western blot and quantified. […]
# [7] = system: primary respiratory epithelial cells from Oxgr1+/+ and Oxgr1–/– mice; assay: Calcium imaging (Fluo-4AM) of primary mouse trachea epithelial cells; assay type: cell-based; conditions: 670 μM ITA or 100 μM ATP
# Method: For calcium imaging of human primary bronchial epithelial cells, cells were infected with 2 CRISPR lentiviruses targeting OXGR1 and cultured for 2 days before calcium imaging. For calcium imaging of primary mouse cells, freshly isolated mouse tracheas were cut into rings, placed onto collagen-coated dishes, and cultured in DMEM supplemented with 10% FBS. Cells were loaded with 5 μM Fluo-4AM for 30 minutes in HBSS buffer, washed twice, and incubated for another 15 minutes for fully deesterification of Fluo-4AM. Cells loaded with Fluo-4AM were monitored with the BioTek Cytation 5 Cell imaging system every 300 ms for a total of 1.5 minutes after ligand administration. Fluorescence was quantified with ImageJ software (NIH).
# [8] = system: mouse trachea; assay: Ex vivo trachea culture, cilia beating-derived fluorescent bead movement; conditions: 500 μM ITA or 100 μM ATP
# Method: Tracheas were harvested from mice and cut longitudinally through the middle of the trachealis muscle to expose the lumen of the trachea. Tracheas were then transferred into HBSS buffer and equilibrated for 30 minutes. With the lumen facing down, trachea tissues were transferred into 2 mL HBSS buffer supplemented with 0.5% methylcellulose, red fluorescent beads, 30 mM HEPES, and the indicated ligand. Bead flow was monitored with the BioTek Cytation 5 cell imaging system. Twenty individual beads were tracked from different fields of view in each condition, and the speed of each bead was calculated by […].
# [9] = system: mucin 5b and β-defensin 1; assay: ELISA of mucin 5b and β-defensin 1 in BAL of P. aeruginosa infected mice; assay type: in vivo, mouse; conditions: ITA intranasal supplementation, P. aeruginosa infection
# From the text: Mucins and antimicrobial polypeptides are essential immune defense components secreted by the respiratory tract ([41], [42]). To test the hypothesis that ITA/OXGR1 signaling may alter the concentration of mucins and antimicrobial polypeptides, we performed an ELISA to quantify the concentration of mucin 5b and β-defensin 1 in the mouse models of P. aeruginosa infection. […] It should be noted that Oxgr1 activation by ITA can simultaneously facilitate mucus secretion and mucus transport (Figure 4). These 2 “opposite” effects of ITA/OXGR1 on mucus may explain the observation of a lack of significant change in mucin 5b and β-defensin 1 in the airway’s surface liquid.
structure (smiles),measurement,setting,value
"C=C(CC(=O)O)C(=O)O [ITA, itaconate]",EC50,[1],221 ± 107 µM
same,calcium mobilization in GPCR screen,[2],the only receptor that showed robust and reproducible calcium mobilization
same,endocytosis of OXGR1,[3],rapid endocytosis of OXGR1 was triggered
same,endocytosis of R110A or R261A mutant OXGR1,[4],did not undergo endocytosis
same,phosphorylation of ERK,[5],dose-dependently induced
same,thermal stability of WT OXGR1,[6],increased the thermal stability
same,"calcium mobilization, Oxgr1+/+ cells",[7],rapid calcium mobilization
same,"movement of beads, trachea from Oxgr1+/+ mice",[8],significantly increased the movement of beads
same,level of mucin 5b in BAL,[9],Neither ITA intranasal supplementation nor Irg1 or Oxgr1 KO altered the levels
same,level of β-defensin 1 in BAL,[9],Neither ITA intranasal supplementation nor Irg1 or Oxgr1 KO altered the levels
